# From PubChem BioAssay (NCI)
# Where “and” joins values, the source holds several entries; their conditions need not be identical. Identical values can stand only once.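 The compound was tested at five concentrations on cells cultured in 96-well plates, with a 48-hour exposure period. GI50 is the concentration that inhibits growth by half. TGI: concentration producing complete growth inhibition.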 Where a SMILES comes first, the peptide text is derived from it.
# What was measured:
# Experiment in all cases: growth of human tumour cells (NCI), 48 h
# NCI/ADR-RES ovarian = system: NCI/ADR-RES ovarian
# SW-620 colon = system: SW-620 colon
# UACC-257 melanoma = system: UACC-257 melanoma
# 786-0 renal = system: 786-0 renal
# MCF7 breast = system: MCF7 breast
# NCI-H226 lung = system: NCI-H226 lung
# HCT-116 colon = system: HCT-116 colon
# SN12C renal = system: SN12C renal
# ACHN renal = system: ACHN renal
# HS 578T breast = system: HS 578T breast
# HOP-62 NSCLC = system: HOP-62 NSCLC
# SR leukemia = system: SR leukemia
# HCT-15 colon = system: HCT-15 colon
# OVCAR-3 ovarian = system: OVCAR-3 ovarian
# LOX IMVI melanoma = system: LOX IMVI melanoma
# EKVX NSCLC = system: EKVX NSCLC
# OVCAR-8 ovarian = system: OVCAR-8 ovarian
# M14 melanoma = system: M14 melanoma
SMILES,TGI (NCI/ADR-RES ovarian),TGI (SW-620 colon),TGI (UACC-257 melanoma),TGI (786-0 renal),TGI (MCF7 breast),TGI (NCI-H226 lung),TGI (HCT-116 colon),TGI (SN12C renal),TGI (ACHN renal),TGI (HS 578T breast),TGI (HOP-62 NSCLC),TGI (SR leukemia),TGI (HCT-15 colon),TGI (OVCAR-3 ovarian),TGI (LOX IMVI melanoma),TGI (EKVX NSCLC),TGI (OVCAR-8 ovarian),TGI (M14 melanoma),GI50 (HCT-116 colon) [µM],GI50 (OVCAR-3 ovarian) [µM]
O=C1c2cscc2C(=O)C1(O)O,> 100 µM,42.1 µM,65.1 µM,> 100 µM,> 100 µM,> 100 µM,46.3 µM,36.3 µM,> 100 µM,> 100 µM,> 100 µM,49.3 µM,> 100 µM,67.5 µM,> 100 µM,> 100 µM,> 100 µM,45.5 µM,,
COc1cc(Br)cc2nc(-c3cccs3)oc12,> 100 µM,> 100 µM,> 100 µM,> 100 µM,> 100 µM,> 100 µM,> 100 µM,> 100 µM,> 100 µM,> 68 µM,> 92.1 µM,> 100 µM,> 100 µM,> 100 µM,> 100 µM,> 100 µM,> 100 µM,> 100 µM,,
CC1(c2nc3ccccc3[nH]2)CCC(C(N)=O)C(C)(C)O1 (centres undefined),> 100 µM,> 100 µM,> 100 µM,> 100 µM,> 100 µM,> 100 µM,> 100 µM,> 100 µM,> 100 µM,> 100 µM,> 100 µM,> 100 µM,> 100 µM,> 100 µM,> 100 µM,> 100 µM,> 100 µM,> 100 µM,,
Nc1ccc2cc3[nH]c4cc(N)ccc4c3nc2c1,2.34 µM,0.845 µM,0.761 µM,1.39 µM,1.7 µM,1.8 µM,0.456 µM,1.17 µM,0.257 µM,2.57 µM,1.13 µM,0.66 µM,1.47 µM,2.69 µM,0.911 µM,1.93 µM,1.69 µM,1.36 µM,,
CC#Cc1cc2c(cc1O)CC[C@@H]1[C@@H]2CC[C@]2(C)[C@@H](O)CC[C@@H]12,10.3 µM,11.1 µM,28.1 µM,35.1 µM,64.3 µM,17.8 µM,17.3 µM,22.8 µM,> 69.6 µM,29.5 µM,16 µM,25.7 µM,14.2 µM,3.26 µM,19.5 µM,26 µM,19.9 µM,17.7 µM,0.48,0.337
CC(C)(C)CC(C)(C)N=C(N)NO,> 100 µM,> 100 µM,> 100 µM,> 100 µM,> 100 µM,> 100 µM,> 100 µM,> 100 µM,23.4 µM,> 100 µM,> 100 µM,> 100 µM,> 100 µM,> 100 µM,> 100 µM,> 100 µM,> 100 µM,> 100 µM,,
CC[N+]1(C)CCC(O)(c2ccccc2)C(C(=O)c2ccccc2)C1 (centres undefined),83.6 µM,4.58 µM,32.7 µM,18.8 µM,9.6 µM,38.8 µM,34.7 µM,21.6 µM,23 µM,74 µM,48.2 µM,15.6 µM,21.8 µM,45.7 µM,36.8 µM,43.4 µM,59.1 µM,24.1 µM,,
C[C@]12CC[C@H](O)C=C1CC[C@@H]1[C@@H]2CC[C@]2(C)C(=N/O)/C(=C/c3ccncc3)C[C@@H]12,96.8 µM,> 100 µM,32.8 µM,25.5 µM,16.7 µM,25.3 µM,18.7 µM,32.8 µM,23.8 µM,> 100 µM,30.9 µM,16.2 µM,> 100 µM,19.1 µM,> 100 µM,> 100 µM,76 µM,24.6 µM,,
COc1ccc2oc(=O)c3c(c2c1C)OC(C)(C)C=C3,> 100 µM,> 100 µM,> 100 µM,> 100 µM,> 100 µM,> 100 µM,> 100 µM,> 100 µM,> 100 µM,> 100 µM,> 100 µM,> 100 µM,> 100 µM,> 100 µM,> 100 µM,> 100 µM,> 100 µM,> 100 µM,,
O=C(NCCNCCNCCNC(=O)c1cc(-c2ccccc2)nc2ccccc12)c1cc(-c2ccccc2)nc2ccccc12,29.3 µM,3.31 µM,3.17 µM,3.08 µM,3.79 µM,7.38 µM,3.39 µM,11.2 µM,4.91 µM,4.96 µM,5.96 µM,5.01 µM,18.9 µM,8.11 µM,3.03 µM,18 µM,3.85 µM,3.39 µM,,
S=C(N/N=C(/c1ccccc1)c1ccccn1)Nc1ccc(Cl)cc1,14.3 µM,11.1 µM,2.43 µM,12.3 µM,7.16 µM,7.54 µM,4.47 µM,13.4 µM,9.01 µM,> 78.2 µM,16.6 µM,6.75 µM,11.2 µM,11.6 µM,7.49 µM,15.5 µM,3.19 µM,2.81 µM,,
CC(=O)NC(CS)C(=O)NC(CO)C(=O)NC(CO)C(=O)NC(Cc1c[nH]c2ccccc12)C(=O)N1CCCC1C(=O)NC(CO)C(=O)NC(Cc1c[nH]c2ccccc12)C(=O)NC(Cc1c[nH]cn1)C(=O)NC(CO)C(=O)NC(Cc1c[nH]c2ccccc12)C(=O)NCC(=O)NCC(=O)NC(CC(=O)O)C(=O)NC(CCC(N)=O)C(=O)NC(CCCCN)C(=O)NC(Cc1ccccc1)C(=O)NC(CCCNC(=N)N)C(=O)NC(CCCCN)C(N)=O (centres undefined) (Ac-CSSWPSWHSWGGDQKFRK-NH2; configuration not given here),> 25 µM,> 25 µM,> 25 µM,> 25 µM,> 25 µM,> 25 µM,> 25 µM,> 25 µM,> 25 µM,> 25 µM,> 25 µM,> 25 µM,> 25 µM,> 25 µM,> 25 µM,> 25 µM,> 25 µM,> 25 µM,,
CCO/C=N/C1=C(C#N)C(c2ccc(Cl)cc2)c2c(-c3ccccc3)nn(-c3ccccc3)c2O1 (centres undefined),> 85.4 µM,> 66.5 µM,35.9 µM,32.2 µM,25 µM,46.9 µM,> 47.9 µM,> 100 µM,29.5 µM,> 28.1 µM,86.5 µM,> 100 µM,> 52.5 µM,> 45.2 µM,31 µM,> 31.6 µM,> 80.8 µM,20.3 µM,,
CC1=C(C#N)C2C(=C(N)Oc3ccccc32)C(N)=N1 (centres undefined),45.6 µM,> 100 µM,69.6 µM,60.9 µM,62.9 µM,66.2 µM,> 100 µM,72.8 µM,81.8 µM,72.1 µM,> 100 µM,> 100 µM,41.4 µM,> 100 µM,81.7 µM,73.8 µM,56.8 µM,64.6 µM,,
COc1ccccc1N1C(=O)CS(=O)(=O)C1c1cccc(Oc2ccccc2)c1 (centres undefined),40 µM,82.8 µM,25.6 µM,34.9 µM,20.4 µM,31.8 µM,27.3 µM,33.1 µM,33.7 µM,48.2 µM,49.2 µM,28.2 µM,36.2 µM,41.2 µM,36.1 µM,42.6 µM,34.3 µM,33.3 µM,,
COC(=O)[C@]12CCC(C)(C)C[C@H]1C1=CC[C@@H]3[C@@]4(C)CC[C@H](OC5OC(CO)C(O)C(O)C5OC5OC(CO)C(O)C(O)C5O)C(C)(C)[C@@H]4CC[C@@]3(C)[C@]1(C)CC2 (some centres undefined),29.1 µM,27.7 µM,20.3 µM,23.8 µM,24.4 µM,14.5 µM,18.7 µM,15.9 µM,20.5 µM,56.8 µM,25.3 µM,26.8 µM,25 µM,22.4 µM,20.2 µM,26 µM,34 µM,13.9 µM,,
Cc1cc(S(=O)(=O)NC2=NC(c3ccccc3)c3ccccc3N2)c(S)cc1Cl (centres undefined),> 100 µM,> 100 µM,> 100 µM,> 100 µM,> 100 µM,> 100 µM,> 100 µM,> 100 µM,> 100 µM,> 100 µM,> 100 µM,58.3 µM,> 100 µM,> 100 µM,> 100 µM,> 100 µM,> 100 µM,> 100 µM,,
CO[C@@H]1C=C[C@@]23c4cc5c(cc4C(O)N(CC2O)C3C1)OCO5 (some centres undefined),75.1 µM,> 100 µM,5.9 µM,22.6 µM,8.64 µM,> 100 µM,21.3 µM,> 100 µM,18.6 µM,> 100 µM,> 100 µM,> 100 µM,39.3 µM,58.8 µM,48.5 µM,33.3 µM,> 100 µM,12.6 µM,,
COC(=O)[C@@H]1C2OC(C)(C)OC2CN1C(=O)OCc1ccccc1 (some centres undefined),> 100 µM,> 100 µM,> 100 µM,> 100 µM,> 100 µM,> 100 µM,> 100 µM,> 100 µM,> 100 µM,> 100 µM,> 100 µM,> 100 µM,> 100 µM,> 100 µM,> 100 µM,> 100 µM,> 100 µM,> 100 µM,,
Cc1ccc(CC2(OCCN(C)C)CCC(C(C)(C)C)CC2)cc1 (centres undefined),21.5 µM and 22.3 µM,5.84 µM and 8 µM,7.65 µM and 4.74 µM,4.45 µM and 3.7 µM,7.74 µM and 8.45 µM,15.6 µM and 15.4 µM,6.73 µM and 6.24 µM,17.6 µM and 17.8 µM,19.1 µM and 20.5 µM,28.4 µM and 21.2 µM,11.1 µM and 8.4 µM,4.67 µM and 5.58 µM,14.9 µM and 15.4 µM,25.8 µM and 27.2 µM,3 µM and 3.97 µM,21.6 µM and 28 µM,16.1 µM and 24.1 µM,3.36 µM and 3.35 µM,,
Nc1nc(Cl)cc(NCC2(CO)CCC(O)C2)n1 (centres undefined),> 100 µM,> 100 µM,> 100 µM,> 100 µM,> 100 µM,> 100 µM,> 100 µM,> 100 µM,> 100 µM,> 100 µM,> 100 µM,> 100 µM,> 100 µM,> 100 µM,> 100 µM,> 100 µM,> 100 µM,> 100 µM,,
CCCNC(C#N)c1ccc(OCCCCCCCCCCOc2ccc(C(C#N)NCCC)cc2)cc1 (centres undefined),> 100 µM,> 100 µM,> 100 µM,> 100 µM,> 100 µM,93.9 µM,> 100 µM,> 100 µM,> 100 µM,> 100 µM,> 100 µM,61.3 µM,> 100 µM,81.1 µM,34.6 µM,> 100 µM,> 100 µM,> 100 µM,,
CCN(CC)CCn1c2cc3c(cc2c(=O)c2cccnc21)OCO3,> 10 µM,> 10 µM,> 10 µM,> 10 µM,> 10 µM,> 10 µM,> 10 µM,> 10 µM,> 10 µM,> 10 µM,> 10 µM,> 10 µM,> 10 µM,> 10 µM,> 10 µM,> 10 µM,> 10 µM,> 10 µM,,
CN(C)c1nc(=NCc2cccs2)ss1,> 10 µM,> 10 µM,> 10 µM,> 10 µM,> 10 µM,> 10 µM,> 10 µM,> 10 µM,> 10 µM,> 10 µM,> 10 µM,> 4.9 µM,> 10 µM,> 10 µM,> 10 µM,> 10 µM,> 10 µM,> 10 µM,,
